These compounds were tested against T1, E-selectin (Homo sapiens, UniProt P16581) (assay: Compound was tested for its ability to inhibit the binding to recombinant human Selectin E immobilized on SPA beads of radiolabeled HL60 cell membrane containing sLex.).
T1 sequence (P16581 whole entry): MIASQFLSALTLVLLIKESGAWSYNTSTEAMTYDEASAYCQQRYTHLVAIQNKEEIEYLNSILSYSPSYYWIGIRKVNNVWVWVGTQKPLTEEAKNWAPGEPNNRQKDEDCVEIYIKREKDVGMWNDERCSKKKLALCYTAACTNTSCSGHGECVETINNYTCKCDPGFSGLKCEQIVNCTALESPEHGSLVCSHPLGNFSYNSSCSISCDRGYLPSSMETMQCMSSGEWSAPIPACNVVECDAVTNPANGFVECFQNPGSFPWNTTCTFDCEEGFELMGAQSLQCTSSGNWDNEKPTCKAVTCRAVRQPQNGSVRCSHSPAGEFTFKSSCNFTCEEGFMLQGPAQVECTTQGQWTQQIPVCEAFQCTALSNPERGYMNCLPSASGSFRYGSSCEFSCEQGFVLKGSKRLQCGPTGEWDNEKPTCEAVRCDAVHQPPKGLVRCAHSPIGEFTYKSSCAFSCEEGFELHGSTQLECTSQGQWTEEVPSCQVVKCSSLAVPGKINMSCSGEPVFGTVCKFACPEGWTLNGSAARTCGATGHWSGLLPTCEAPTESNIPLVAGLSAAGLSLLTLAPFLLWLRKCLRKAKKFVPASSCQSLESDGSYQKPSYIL
Assay type: cell membranes, HL-60

Q: How did the IC50 turn out when `C[C@@H]1O[C@@H](OC2CCCCC2O[C@@H]2O[C@@H](CO)[C@H](O)[C@H](OCC(=O)O)[C@@H]2O)[C@@H](O)[C@@H](O)[C@@H]1O` (stereo partly drawn) was run?
A: The IC50 was 500 µM.

Q: Which IC50 does the source give for `CC(O[C@@H]1O[C@@H](C)[C@@H](O)[C@H](O)[C@@H]1O)C(C)O[C@@H]1O[C@@H](CO)[C@H](O)[C@H](OCC(=O)O)[C@@H]1O` (stereo partly drawn) here?
A: The IC50 was 2100 µM.

Q: How did the IC50 turn out when `C[C@@H]1O[C@@H](O[C@@H]2CCCC[C@H]2O[C@@H]2O[C@@H](CO)[C@H](O)[C@H](OCC(=O)O)[C@@H]2O)[C@@H](O)[C@@H](O)[C@@H]1O` was run?
A: The IC50 was over 10000 µM.
